Source: patent US9388164B2, “Methods of using pyruvate kinase activators” (AGIOS PHARMACEUTICALS, INC, priority 2011, dated 2016)

Columns and labels:
Format in all cases: biochemical
[1] = target: PKR R510Q (Homo sapiens, UniProt P30613, R510Q); assay: PKR R510Q Single Point Percent Activation Assay; details: compound at 1 μM; read-out: % Act. R510Q
Method: PKR R510Q Single Point Percent Activation Assay
(§1) A compound described herein was diluted with DMSO and tested at 1 μM concentration. The enzyme was diluted in 1× Buffer: (100 mM KCl, 50 mM Tris 7.5, 5 mM MgCl2, 1 mM DTT, 0.03% BSA). 2 μL of compound solution was first added into wells, and then 180 μL of enzyme solution was added. Assays were assembled except for ADP, and plates were stored for 60 minutes at RT. 20 μL ADP was added to start the assay and assay output was evaluated using OD340 at SpectraMax. The assay was run at room temperature.
PKR R510Q (40 ng/well), Tris pH 7.5 (50 mM), KCl (100 mM), MgCl2 (5 mM), ADP (0.2 mM), PEP (0.11 mM), NADH (180 μM), LDH (0.5 units, Sigma 59023), DTT (1 mM) and BSA (0.03%).

[2] = target: PKR R532W (Homo sapiens, UniProt P30613, R532W); assay: PKR R532W Single Point Percent Activation Assay; details: compound at 1 μM; read-out: % Act. R532W
Sequence of PKR R532W (P30613 whole entry R532W): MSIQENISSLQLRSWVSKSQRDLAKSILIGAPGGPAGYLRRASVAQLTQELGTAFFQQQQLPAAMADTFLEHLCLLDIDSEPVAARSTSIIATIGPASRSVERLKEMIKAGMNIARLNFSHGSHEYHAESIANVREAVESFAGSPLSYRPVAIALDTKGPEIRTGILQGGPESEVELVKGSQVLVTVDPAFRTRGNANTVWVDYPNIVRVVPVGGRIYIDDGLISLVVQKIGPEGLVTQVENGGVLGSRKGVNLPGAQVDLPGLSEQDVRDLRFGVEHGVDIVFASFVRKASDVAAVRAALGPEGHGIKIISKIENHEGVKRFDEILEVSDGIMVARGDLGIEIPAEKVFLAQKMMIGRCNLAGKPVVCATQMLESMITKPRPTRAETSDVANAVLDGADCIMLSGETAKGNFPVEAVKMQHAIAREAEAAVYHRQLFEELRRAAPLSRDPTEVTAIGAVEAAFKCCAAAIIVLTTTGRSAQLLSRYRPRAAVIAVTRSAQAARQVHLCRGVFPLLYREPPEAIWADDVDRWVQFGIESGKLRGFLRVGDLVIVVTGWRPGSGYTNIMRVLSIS
Method: PKR R532W Single Point Percent Activation Assay
as §1
PKR R532W (100 ng/well), Tris pH 7.5 (50 mM), KCl (100 mM), MgCl2 (5 mM), ADP (0.36 mM), PEP (0.1 mM), NADH (180 μM), LDH (0.5 units, Sigma 59023), DTT (1 mM) and BSA (0.03%).

[3] = target: PKR T384W (Homo sapiens, UniProt P30613); assay: PKR T384W Single Point Percent Activation Assay; details: compound at 1 μM
Sequence of PKR T384W (P30613 whole entry T384M): as the sequence (P30613 whole entry R532W) above, with T384M, W532R counted along it
Method: PKR T384W Single Point Percent Activation Assay
as §1, with “180 μL enzyme solution” for “180 μL of enzyme solution”
PKR T384W soluble (300 ng/well), Tris pH 7.5 (50 mM), KCl (100 mM), MgCl2 (5 mM), ADP (0.08 mM), PEP (0.23 mM), NADH (180 μM), LDH (0.5 units, Sigma 59023), DTT (1 mM) and BSA (0.03%).

[4] = target: PKR wt (Homo sapiens, UniProt P30613); assay: PKR WT Single Point Percent Activation Assay; details: compound at 1 μM
Sequence of PKR wt (P30613 whole entry): as the sequence (P30613 whole entry R532W) above, with W532R counted along it
Method: PKR WT Single Point Percent Activation Assay
as §1
PKR wt (100 ng/well), Tris pH 7.5 (50 mM), KCl (100 mM), MgCl2 (5 mM), ADP (0.48 mM), PEP (0.15 mM), NADH (180 μM), LDH (0.5 units, Sigma 59023), DTT (1 mM) and BSA (0.03%).

Sequence of PKR R510Q (P30613 whole entry R510Q): as the sequence (P30613 whole entry R532W) above, with R510Q, W532R counted along it

Compound | activation at 1 µM [1] [%] | activation at 1 µM [2] [%] | % Act. T384W [3] | activation at 1 µM [4] [%]
COC1(Cc2ccccc2)CN(C(=O)c2ccc(NS(=O)(=O)c3cccc4cccnc34)cc2)C1 | 101 to 500 | 101 to 500 | B (a % activation at 1 μM of from 101 to 500) | 101 to 500
O=C(c1ccc(NS(=O)(=O)c2cccc3cccnc23)c(F)c1)N1CC(Oc2ccccc2)C1 | 101 to 500 | 101 to 500 | B (a % activation at 1 μM of from 101 to 500) | 101 to 500
Cc1cc(C(=O)N2CC(N(C)Cc3ccccc3)C2)ccc1NS(=O)(=O)c1cccc2cccnc12 | 101 to 500 | 101 to 500 | A (a % activation at 1 μM of from 1 to 100) | 101 to 500
Cc1cc(C(=O)N2CC(OC(=O)c3ccccn3)C2)ccc1NS(=O)(=O)c1cccc2cccnc12 | 101 to 500 | 1 to 100 | A (a % activation at 1 μM of from 1 to 100) | 1 to 100
O=C(c1ccc(NS(=O)(=O)c2cccc3cccnc23)cc1)N1CC(Nc2ccccc2)C1 | 1 to 100 | 1 to 100 | A (a % activation at 1 μM of from 1 to 100) | 1 to 100
COc1ccccc1NC1CN(C(=O)c2ccc(NS(=O)(=O)c3cccc4cccnc34)cc2)C1 | 101 to 500 | 1 to 100 | A (a % activation at 1 μM of from 1 to 100) | 1 to 100
COc1ccccc1NC1CN(C(=O)c2ccc(NS(=O)(=O)c3cccc4cccnc34)c(C)c2)C1 | 101 to 500 | 1 to 100 | A (a % activation at 1 μM of from 1 to 100) | 1 to 100
COc1ccccc1NC1CN(C(=O)c2ccc(NS(=O)(=O)c3cccc4cccnc34)c(F)c2)C1 | 1 to 100 | 1 to 100 | A (a % activation at 1 μM of from 1 to 100) | 1 to 100
COc1ccccc1NC1CN(C(=O)c2ccc(S(=O)(=O)Nc3cccc4cccnc34)cc2)C1 | 101 to 500 | 101 to 500 | A (a % activation at 1 μM of from 1 to 100) | 101 to 500
O=C(c1ccc(S(=O)(=O)Nc2cccc3cccnc23)cc1)N1CC(OCc2ccccc2)C1 | 101 to 500 | 1 to 100 | B (a % activation at 1 μM of from 101 to 500) | 101 to 500
Cc1cc(C(=O)N2CC(OCc3ccccc3)C2)ccc1NS(=O)(=O)c1cccc2cccnc12 | 101 to 500 | 1 to 100 | B (a % activation at 1 μM of from 101 to 500) | 101 to 500
O=C(NC1CN(C(=O)c2ccc(NS(=O)(=O)c3cccc4cccnc34)c(F)c2)C1)c1ccccn1 | 101 to 500 | 1 to 100 | B (a % activation at 1 μM of from 101 to 500) | 101 to 500
CN(c1ccccc1)C1CN(C(=O)c2ccc(NS(=O)(=O)c3cccc4cccnc34)cc2)C1 | 101 to 500 | 101 to 500 | B (a % activation at 1 μM of from 101 to 500) | 101 to 500
O=C(Cc1ccccc1)OC1CN(C(=O)c2ccc(NS(=O)(=O)c3cccc4cccnc34)cc2)C1 | 101 to 500 | 1 to 100 | B (a % activation at 1 μM of from 101 to 500) | 101 to 500
O=C(OC1CN(C(=O)c2ccc(NS(=O)(=O)c3cccc4cccnc34)c(F)c2)C1)c1ccccn1 | 101 to 500 | 101 to 500 | B (a % activation at 1 μM of from 101 to 500) | 101 to 500
CC1(O)CN(C(=O)c2ccc(NS(=O)(=O)c3cccc4cccnc34)c(F)c2)C1 | 101 to 500 | 1 to 100 | B (a % activation at 1 μM of from 101 to 500) | 101 to 500
CC1(O)CN(C(=O)c2ccc(NS(=O)(=O)c3cccc4cccnc34)cc2)C1 | 101 to 500 | 1 to 100 | B (a % activation at 1 μM of from 101 to 500) | 101 to 500

Compound | activation at 1 µM [1] [%] | activation at 1 µM [2] [%] | % Act. T384W [3] | activation at 1 µM [4] [%]
COc1cc(NS(=O)(=O)c2cccc3cccnc23)ccc1C(=O)N1CC(C)(O)C1 | 101 to 500 | 1 to 100 | B (a % activation at 1 μM of from 101 to 500) | 101 to 500
COc1ccccc1OC1CN(C(=O)c2ccc(NS(=O)(=O)c3cccc4cccnc34)cc2)C1 | 101 to 500 | 1 to 100 | B (a % activation at 1 μM of from 101 to 500) | 101 to 500
COc1cc(NS(=O)(=O)c2cccc3cccnc23)ccc1C(=O)N1CC(O)(Cc2ccccc2)C1 | 101 to 500 | 101 to 500 | B (a % activation at 1 μM of from 101 to 500) | 101 to 500
Cc1cc(C(=O)N2CC(O)(Cc3ccccc3)C2)ccc1NS(=O)(=O)c1cccc2cccnc12 | 101 to 500 | 1 to 100 | B (a % activation at 1 μM of from 101 to 500) | 101 to 500
Cc1cc(C(=O)N2CC(OC(=O)NC(C)C)C2)ccc1NS(=O)(=O)c1cccc2cccnc12 | 101 to 500 | 101 to 500 | A (a % activation at 1 μM of from 1 to 100) | 101 to 500
COc1cc(NS(=O)(=O)c2cccc3cccnc23)ccc1C(=O)N1CC(OC(=O)NC(C)C)C1 | 101 to 500 | 101 to 500 | B (a % activation at 1 μM of from 101 to 500) | 101 to 500
CC(C)NC(=O)OC1CN(C(=O)c2ccc(NS(=O)(=O)c3cccc4cccnc34)c(F)c2)C1 | 101 to 500 | 1 to 100 | B (a % activation at 1 μM of from 101 to 500) | 101 to 500
CC(C)NC(=O)OC1CN(C(=O)c2ccc(NS(=O)(=O)c3cccc4cccnc34)cc2)C1 | 101 to 500 | 101 to 500 | B (a % activation at 1 μM of from 101 to 500) | 101 to 500
Cc1cc(C(=O)N2CC(O)(c3ccccc3)C2)ccc1NS(=O)(=O)c1cccc2cccnc12 | 101 to 500 | 101 to 500 | B (a % activation at 1 μM of from 101 to 500) | 101 to 500
COc1cc(NS(=O)(=O)c2cccc3cccnc23)ccc1C(=O)N1CC(O)(c2ccccc2)C1 | 101 to 500 | 101 to 500 | B (a % activation at 1 μM of from 101 to 500) | 101 to 500
C=CCNC(=O)NC1CN(C(=O)c2ccc(NS(=O)(=O)c3cccc4cccnc34)cc2)C1 | 101 to 500 | 101 to 500 | B (a % activation at 1 μM of from 101 to 500) | 101 to 500
C=CCNC(=O)NC1CN(C(=O)c2ccc(NS(=O)(=O)c3cccc4cccnc34)c(OC)c2)C1 | 101 to 500 | 101 to 500 | B (a % activation at 1 μM of from 101 to 500) | 101 to 500
O=C(c1ccc(NS(=O)(=O)c2cccc3cccnc23)cc1)N1CC(O)C1 | 101 to 500 | 101 to 500 | B (a % activation at 1 μM of from 101 to 500) | 101 to 500
Cc1cc(C(=O)N2CC(O)C2)ccc1NS(=O)(=O)c1cccc2cccnc12 | 101 to 500 | 101 to 500 | A (a % activation at 1 μM of from 1 to 100) | 101 to 500
COc1cc(NS(=O)(=O)c2cccc3cccnc23)ccc1C(=O)N1CC(O)C1 | 101 to 500 | 101 to 500 | A (a % activation at 1 μM of from 1 to 100) | 101 to 500
O=C(c1ccc(NS(=O)(=O)c2cccc3cccnc23)cc1)N1CC(=Cc2ccccc2)C1 | 1 to 100 | 1 to 100 | A (a % activation at 1 μM of from 1 to 100) | 1 to 100
